The values below come from PMC5811606, “Characterization of ^111In-labeled Glucose-Dependent Insulinotropic Polypeptide as a Radiotracer for Neuroendocrine Tumors” (Scientific Reports, 2018).

Entries after “also recorded” stand apart in the source; their conditions may differ.

The data set can be described thus: Serum stability analysis in human serum. It counts as in vitro ADME. Particulars: human serum (1:10), 37 °C. On the procedure:
[Lys^37(DTPA)]N-acetyl-GIP1-42 (MW = 5422 g/mol) and GIP1-42 (MW = 5046.7 g/mol) were purchased from Peptide Specialty Laboratories (PSL GmbH, Heidelberg, Germany). DTPA was conjugated to the ε-amino group of the Lysine (K37) and the N-terminal tyrosine was acetylated to reduce its susceptibility to […] (Fig. 1). [Lys^37(DTPA)]GIP1-42 was dissolved in 0.5 M MES (2-(N-morpholino)ethanesulfonic acid) buffer, pH 5.5 and stored at 4 °C until use. […] Radiochemical purity of [Lys^37(^111In-DTPA)]N-acetyl-GIP1-42 was determined by instant thin-layer chromatography (ITLC) (ITLC-SG, Agilent Technologies, Lake Forest, CA, USA), using 0.1 M EDTA in 0.1 M NH4Ac (Sigma Aldrich), pH 5.5 as a mobile agent and by reversed-phase high performance liquid chromatography (RP-HPLC) using an Eclipse XDB C18 column (Agilent Technologies). […]
For the serum stability analysis, [Lys^37(DTPA)]N-acetyl-GIP1-42 was labeled with [^111In]Cl3 at a specific activity of 27 GBq/µmol. Radiochemical purity of [Lys^37(^111In-DTPA)]N-acetyl-GIP1-42 directly after labeling was determined by ITLC-SG (Agilent Technologies) and RP-HPLC as described above. […] This mixture was centrifuged and after dilution, the radiochemical purity of the compound in the supernatant was analyzed using ITLC and RP-HPLC as described above.

On to `CC[C@H](C)[C@H](NC(=O)[C@H](CO)NC(=O)[C@H](Cc1ccc(O)cc1)NC(=O)[C@H](CC(=O)O)NC(=O)[C@H](CO)NC(=O)[C@@H](NC(=O)[C@H](Cc1ccccc1)NC(=O)[C@@H](NC(=O)CNC(=O)[C@H](CCC(=O)O)NC(=O)[C@H](C)NC(=O)[C@H](Cc1ccc(O)cc1)NC(C)=O)[C@@H](C)O)[C@@H](C)CC)C(=O)N[C@@H](C)C(=O)N[C@@H](CCSC)C(=O)N[C@@H](CC(=O)O)C(=O)N[C@@H](CCCCN)C(=O)N[C@H](C(=O)N[C@@H](Cc1c[nH]cn1)C(=O)N[C@@H](CCC(N)=O)C(=O)N[C@@H](CCC(N)=O)C(=O)N[C@@H](CC(=O)O)C(=O)N[C@@H](Cc1ccccc1)C(=O)N[C@H](C(=O)N[C@@H](CC(N)=O)C(=O)N[C@@H](Cc1c[nH]c2ccccc12)C(=O)N[C@@H](CC(C)C)C(=O)N[C@@H](CC(C)C)C(=O)N[C@@H](C)C(=O)N[C@@H](CCC(N)=O)C(=O)N[C@@H](CCCCN)C(=O)NCC(=O)N[C@@H](CCCCN)C(=O)N[C@@H](CCCCN)C(=O)N[C@@H](CC(N)=O)C(=O)N[C@@H](CC(=O)O)C(=O)N[C@@H](Cc1c[nH]c2ccccc12)C(=O)N[C@@H](CCCCNC(=O)CN(CCN(CCN(CC(=O)O)CC(=O)O)CC(=O)O)CC(=O)O)C(=O)N[C@@H](Cc1c[nH]cn1)C(=O)N[C@@H](CC(N)=O)C(=O)N[C@H](C(=O)N[C@H](C(=O)N[C@@H](CCC(N)=O)C(=O)O)[C@@H](C)O)[C@@H](C)CC)C(C)C)[C@@H](C)CC` [[Lys^37(^111In-DTPA)]N-acetyl-GIP1-42, metal not drawn], for which the remaining at 24 h (24 hours, acetonitrile precipitation, RP-HPLC, read-out: activity found as intact radiolabeled peptide) is 73%. For the same compound, under “up to 4 hours, ITLC and RP-HPLC”, the “stability in human serum” value is reported as “remained intact; also recorded: remained stable”.
